Drawing on US9000022B2 (Exelixis Patent Company LLC, priority 2005, dated 2015), this text covers IC50 or EC50 (potency, activation or inhibition) for 23 compounds.

For this test, the system named is LXRα and/or LXRβ. Nature of the test: Co-transfection assay (LXRE luciferase reporter, CV-1 cells). Type of test: cell-based, human. To be noted: tested as described in Example 33; IC50 or EC50 for LXRα and/or LXRβ, isoform not specified; read-out: activity (IC50 or EC50 for LXR). The source says: To measure the ability of compounds to activate or inhibit the transcriptional activity of LXR in a cell based assay, the co-transfection assay was used. It has been shown that LXR functions as a heterodimer with RXR. For the co-transfection assay, expression plasmids for LXR and RXR are introduced via transient transfection into mammalian cells along with a luciferase reporter plasmid that contains one copy of a DNA sequence that is bound by LXR-RXR heterodimers (LXRE; Willy, P. et. al. 1995). Treatment of transfected cells with an LXR agonist increases the transcriptional activity of LXR, which is measured by an increase in luciferase activity.
CV-1 African Green Monkey Kidney Cells Co-transfection expression plasmids, comprising full-length LXRα (pCMX-h LXRα, LXRβ (pCMX-hLXRβ), or RXRα (pCMX-RXR), reporter plasmid (LXREx1-Tk-Luciferase), and control (pCMX-Galactosidase expression vector) (Willey et al. Genes & Development 9 1033-1045 (1995)). Transfection reagent such as FuGENE6 (Roche). 1× Cell lysis buffer (1% Triton X 100 (J T Baker X200-07), 10% Glycerol (J T Baker M778-07), 5 mM Ditriotreitol (Quantum Bioprobe DTT03; add fresh before lysing), 1 mM EGTA (Ethylene Glycol-bis(B-Amino ethyl ether)-N,N,N′,N′-Tetracetic Acid) (Sigma E-4378), 25 mM Tricine (ICN 807420) pH 7.8) 1× Luciferase assay buffer (pH at 7.8) (0.73 mM ATP, 22.3 mM Tricine, 0.11 mM EDTA, 33.3 mM DTT) 1× Luciferrin/CoA (11 mM Luciferin, 3.05 mM Coenzyme A, 10 mM HEPES)
CV-1 cells were prepared 24 hours prior to the experiment by plating them into T-175 flasks or 500 cm^2 dishes in order to achieve 70-80% confluency on the day of the transfection. The number of cells to be transfected was determined by the number of plates to be screened. Each 384 well plate requires 1.92×10^6 cells or 5000 cells per well. DNA Transfection Reagent was prepared by mixing the required plasmid DNAs with a cationic lipid transfection reagent FuGENE6 (Roche) by following the instructions provided with the reagents. Optimal DNA amounts were determined empirically per cell line and size of vessel to be transfected. 10-12 mL of media was added to the DNA Transfection Reagent and this mixture was added to the cells after aspirating media from the T175 cm^2 flask. Cells were then incubated at least 5 hours at 37° C. to prepare screening cells.
Luciferase assay reagent was prepared by combining before use (per 10 mL): 10 mL 1× Luciferase assay buffer; 0.54 mL of 1× Luciferrin/CoA; 0.54 mL of 0.2 M Magnesium sulfate
Assay plates were prepared by dispensing 5 μL, of compound per well of a 384 well plate to achieve final compound concentration of 10 μM and no more than 1% DMSO. Media was removed from the screening cells, the cells trypsinized, harvested cells by centrifugation, counted, and plated at a density of approximately 5000 cells per well in the 384 well assay plate prepared above in a volume of about 45 μL. Assay plates containing both compounds and screening cells (50 μL in total volume) were incubated for 20 hours at 37° C.
After incubation with compounds, media was removed from the cells and lysis buffer (30 μL/well) added. After 30 minutes at ambient temperature, luciferase assay buffer (30 μL/well) was added and the assay plates read on a luminometer (PE Biosystems Northstar reader with on-board injectors, or equivalent). Plates were read immediately after addition of luciferase assay buffer.
The LXR/LNRE co-transfection assay can be used to establish the EC50/IC50 values for potency and percent activity or inhibition for efficacy. Efficacy defines the activity of a compound relative to a high control ((N-(3-((4-fluorophenyl)-(naphthalene-2-sulfonyl)amino)propyl)-2,2-dimethylpropionamide)) or a low control (DMSO/vehicle). The dose response curves are generated from an 8 point curve with concentrations differing by ½ LOG units. Each point represents the average of 4 wells of data from a 384 well plate. […]

As for `CCS(=O)(=O)c1cccc(-c2ccc(-c3nc(C(C)(C)O)cn3-c3c(Cl)cccc3Cl)c(C)c2)c1` [Example 58, 2-(1-(2,6-dichlorophenyl)-2-(3′-(ethylsulfonyl)-3-methylbiphenyl-4-yl)-1H-imidazol-4-yl)propan-2-ol], the IC50 or EC50 (potency, activation or inhibition) was under 1 µM.

In the case of `Cc1cc(-c2cccc(S(C)(=O)=O)c2)ccc1-c1nc(C(C)(C)O)cn1-c1c(C)cccc1C(C)C` [Example 59, 2-(1-(2-isopropyl-6-methylphenyl)-2-(3-methyl-3′-(methylsulfonyl)biphenyl-4-yl)-1H-imidazol-4-yl)propan-2-ol], the IC50 or EC50 (potency, activation or inhibition) was under 1 µM.

With `CCS(=O)(=O)c1cccc(-c2ccc(-c3nc(C(C)(C)O)cn3-c3c(C)cccc3C(C)C)c(C)c2)c1` [Example 60, 2-(2-(3′-(ethylsulfonyl)-3-methyl-biphenyl-4-yl)-1-(2-isopropyl-6-methylphenyl)-1H-imidazol-4-yl)propan-2-ol], the IC50 or EC50 (potency, activation or inhibition) is under 1 µM.

In the case of `Cc1cc(-c2cccc(S(C)(=O)=O)c2)ccc1-c1nc(C(C)(C)O)cn1-c1ccccc1C(C)C` [Example 61, 2-(1-(2-isopropylphenyl)-2-(3-methyl-3′-(methylsulfonyl)biphenyl-4-yl)-1H-imidazol-4-yl)propan-2-ol], the IC50 or EC50 (potency, activation or inhibition) is under 1 µM.

On to `CCS(=O)(=O)c1cccc(-c2ccc(-c3nc(C(C)(C)O)cn3-c3ccccc3C(C)C)c(C)c2)c1` [Example 62, 2-(2-(3′-(ethylsulfonyl)-3-methyl-biphenyl-4-yl)-1-(2-isopropylphenyl)-1H-imidazol-4-yl)propan-2-ol], for which the IC50 or EC50 (potency, activation or inhibition) is under 1 µM.

On to `CC(C)(O)c1cn(-c2c(Cl)cccc2Cl)c(-c2ccc(-c3cccc(S(C)(=O)=O)c3)cc2)n1` [Example 63, 2-(1-(2,6-dichlorophenyl)-2-(3′-(methylsulfonyl)biphenyl-4-yl)-1H-imidazol-4-yl)propan-2-ol], for which the IC50 or EC50 (potency, activation or inhibition) was under 1 µM.

Regarding `CCS(=O)(=O)c1cccc(-c2ccc(-c3nc(C(C)(C)O)cn3-c3c(Cl)cccc3Cl)cc2)c1` [Example 64, 2-(1-(2,6-dichlorophenyl)-2-(3′-(ethylsulfonyl)biphenyl-4-yl)-1H-imidazol-4-yl)propan-2-ol], the IC50 or EC50 (potency, activation or inhibition) was under 1 µM.

For `CC(C)(O)c1cn(-c2c(Cl)cccc2Cl)c(-c2ccc(-c3cccc(S(C)(=O)=O)c3)cc2Cl)n1` [Example 65, 2-(2-(3-chloro-3′-(methyl-sulfonyl)biphenyl-4-yl)-1-(2,6-dichlorophenyl)-1H-imidazol-4-yl)propan-2-ol], the IC50 or EC50 (potency, activation or inhibition) is under 1 µM.

`CCS(=O)(=O)c1cccc(-c2ccc(-c3nc(C(C)(C)O)cn3-c3c(Cl)cccc3Cl)c(Cl)c2)c1` [Example 66, 2-(2-(3-chloro-3′-(ethyl-sulfonyl)biphenyl-4-yl)-1-(2,6-dichlorophenyl)-1H-imidazol-4-yl)propan-2-ol]: the IC50 or EC50 (potency, activation or inhibition) was under 1 µM.

For the compound `CC(O)(c1cn(-c2ccc(-c3cccc(S(C)(=O)=O)c3)cc2)c(-c2ccccc2C(F)(F)F)n1)C(F)(F)F` (centres unmarked) [Example 67], the IC50 or EC50 (potency, activation or inhibition) is under 1 µM.

Turning to `CCOC(=O)c1cn(-c2ccc(-c3cccc(S(C)(=O)=O)c3)cc2Cl)c(-c2c(Cl)cccc2Cl)n1` [Example 68, ethyl 1-(3-chloro-3′-(methyl-sulfonyl)biphenyl-4-yl)-2-(2,6-dichlorophenyl)-1H-imidazole-4-carboxylate], the IC50 or EC50 (potency, activation or inhibition) is under 1 µM.

Consider `CC(=O)c1cn(-c2ccc(-c3cccc(S(C)(=O)=O)c3)cc2)c(-c2c(Cl)cccc2Cl)n1` [Example 69, 1-(2-(2,6-dichlorophenyl)-1-(3′-(methylsulfonyl)biphenyl-4-yl)-1H-imidazol-4-yl)ethanone], for which the IC50 or EC50 (potency, activation or inhibition) was under 1 µM.

On to `C/C(=N\O)c1cn(-c2ccc(-c3cccc(S(C)(=O)=O)c3)cc2)c(-c2c(Cl)cccc2Cl)n1` [Example 70, (E)-1-(2-(2,6-dichlorophenyl)-1-(3′-(methylsulfonyl)biphenyl-4-yl)-1H-imidazol-4-yl)ethanone oxime], for which the IC50 or EC50 (potency, activation or inhibition) was under 1 µM.

In the case of `CCc1ccccc1-c1nc(/C(C)=N/O)cn1-c1ccc(-c2cccc(S(C)(=O)=O)c2)cc1` [Example 71, (E)-1-(2-(2-ethylphenyl)-1-(3′-(methylsulfonyl)biphenyl-4-yl)-1H-imidazol-4-yl)ethanone oxime], the IC50 or EC50 (potency, activation or inhibition) is under 1 µM.

Turning to `CCC(O)(CC)c1cn(-c2ccc(-c3cccc(S(C)(=O)=O)c3)cc2)c(-c2cccc(Cl)c2Cl)n1` [Example 72, 3-(2-(2,3-dichlorophenyl)-1-(3′-(methylsulfonyl)biphenyl-4-yl)-1H-imidazol-4-yl)pentan-3-ol], the IC50 or EC50 (potency, activation or inhibition) was under 1 µM.

In the case of `CCC(O)(CC)c1cn(-c2ccc(-c3cccc(S(=O)(=O)CC)c3)cc2)c(-c2cccc(Cl)c2Cl)n1` [Example 73, 3-(2-(2,3-dichlorophenyl)-1-(3′-(ethylsulfonyl)biphenyl-4-yl)-1H-imidazol-4-yl)pentan-3-ol], the IC50 or EC50 (potency, activation or inhibition) is under 1 µM.

On to `CCC(O)(CC)c1cn(-c2ccc(-c3cccc(S(C)(=O)=O)c3)cc2)c(-c2c(Cl)cccc2Cl)n1` [Example 74, 3-(2-(2,6-dichlorophenyl)-1-(3′-(methylsulfonyl)biphenyl-4-yl)-1H-imidazol-4-yl)pentan-3-ol], for which the IC50 or EC50 (potency, activation or inhibition) is under 1 µM.

With `Cc1cc(-c2cccc(S(C)(=O)=O)c2)ccc1-n1cc(C(=S)NCC(F)(F)F)nc1-c1ccccc1C(C)C` [Example 75, 2-(2-isopropylphenyl)-1-(3-methyl-3′-(methylsulfonyl)biphenyl-4-yl)-N-(2,2,2-trifluoroethyl)-1H-imidazole-4-carbothioamide], the IC50 or EC50 (potency, activation or inhibition) was under 1 µM.

For the compound `C/C(=N\O)c1cn(-c2ccc(-c3cccc(S(C)(=O)=O)c3)cc2C)c(-c2ccccc2C(C)C)n1` [Example 76, (E)-1-(2-(2-isopropylphenyl)-1-(3-methyl-3′-(methylsulfonyl)biphenyl-4-yl)-1H-imidazol-4-yl)ethanone oxime], the IC50 or EC50 (potency, activation or inhibition) is under 1 µM.

For `C=C(C)c1cn(-c2ccc(-c3cccc(S(=O)(=O)CC)c3)cc2)c(-c2cccc(Cl)c2Cl)n1` [Example 77, 2-(2,3-dichlorophenyl)-1-(3′-(ethylsulfonyl)biphenyl-4-yl)-4-(prop-1-en-2-yl)-1H-imidazole], the IC50 or EC50 (potency, activation or inhibition) is under 1 µM.

Consider `C=C(C)c1cn(-c2ccc(-c3cccc(S(C)(=O)=O)c3)cc2)c(-c2c(Cl)cccc2Cl)n1` [Example 78, 2-(2,6-dichlorophenyl)-1-(3′-(methylsulfonyl)biphenyl-4-yl)-4-(prop-1-en-2-yl)-1H-imidazole], for which the IC50 or EC50 (potency, activation or inhibition) was under 1 µM.

For the compound `CC(C)(O)c1cn(-c2ccc(-c3ccc(C(=O)NCc4ccccc4)c(S(C)(=O)=O)c3)cc2Cl)c(-c2c(F)cccc2Cl)n1` [Example 80, N-benzyl-3′-chloro-4′-(2-(2-chloro-6-fluorophenyl)-4-(2-hydroxypropan-2-yl)-1H-imidazol-1-yl)-3-(methyl-sulfonyl)biphenyl-4-carboxamide], the IC50 or EC50 (potency, activation or inhibition) is 1 to 10 µM.

For `CCNC(=O)c1cn(-c2ccc(-c3cccc(S(C)(=O)=O)c3)cc2)c(-c2c(Cl)cccc2Cl)n1` [Example 82, 2-(2,6-dichlorophenyl)-N-ethyl-1-(3′-(methylsulfonyl)biphenyl-4-yl)-1H-imidazole-4-carboxamide], the IC50 or EC50 (potency, activation or inhibition) is under 1 µM.
